The values that follow come from patent US12065671B2, “Method for reproducible differentiation of clinical-grade retinal pigment epithelium cells” (The United States of America, as represented by the …, priority 2015, dated 2024).

What all share (format): cell-based, human
The test system of assay [1] is iPSC-RPE cells. Kind of assay: Immunostaining of iPSC-RPE monolayer (beta catenin, pERM, ZO1, RPE65, p27). As to conditions: for p27 staining: nucleus, higher expression suggests cell cycle exit; for Beta catenin staining: treated vs untreated iPSC-RPE cells (untreated: cytoplasm); for RPE65 staining: treated vs untreated iPSC-RPE cells (untreated: low); for RPE maturation: treatment of RPE cells in RPE-MM. As for the experimental part:
(§1) For analysis of the mature RPE cells produced from treatment with PGE2, immunostaining of the RPE monolayer was performed to confirm the hexagonal architecture (FIGS. 4A-4C) of tight junctions by ZO1 staining as well as transmission electron microscopy of the iPSC-RPE cells (FIG. 4D). […] In addition, treatment with IWP2+endo-IWR1 or IWP2 results also results in decreased beta catenin (FIG. 5A) and increased RPE65 (FIG. 5C).

Assay [2] relates to iPSC-derived RPE cells. Put plainly: Flow cytometry purity assay for RPE-specific markers. As for the experimental part:
The flow cytometry purity assay was performed to determine the percentage of RPE cells obtained by a sorting method of the present disclosure. An aliquot of the cell suspension collected from the MACS assay (2×10^6 cells in a 5 mL FACS tube per sample) was centrifuged at 400×g for 3 min. The cell pellet was resuspended in 1 mL of a stain (e.g., Live-Dead Red stain) and incubated in the dark at room temperature for 15 min. After incubation, 2 mL of wash buffer was added and the cells were centrifuged at 400×g for 3 min to remove any unbound stain. The cell pellet was resuspended in fixation buffer and incubated in the dark at room temperature for 15 min. After incubation, 2 mL of wash buffer were added and the cells were centrifuged at 400×g for 3 min and the supernatant was decanted. The cell pellet was resuspended in 2 mL of wash buffer to make a 1×10^6 cells/mL suspension and 200 μL of the cell suspension was transferred to a FACS tube. To each tube, 2 mL of perm buffer was added and cells were centrifuged at 400×g for 3 min. Primary antibodies for the RPE-specific markers were diluted in perm buffer and 100 μL diluted antibody solution was added to each tube. After incubation overnight at 4° C. in the dark, the cells were washed in 2 mL Perm Buffer two times. Secondary antibody solution was added to each of the tubes and cells were incubated at room temperature in the dark for 1-2 hours. After incubation, the cells were washed twice with Perm Buffer, centrifuged (400×g for 3 min) and resuspended in 100 μL wash buffer for flow cytometry analysis. […]
Functionality of the mature RPE cells treated with IWP2 or endo-IWR1 was also characterized. […] To determine the maturity and functionality of the 50 μM versus 100 μM PGE2 treated cultures, the barrier function in terms of transepithelial electrical resistance (TER) was measured (FIG. 7F) to compare the resistance of substances through the paracellular space as explained in Example 9. […]

In assay [3] the test system is iPSC-RPE cells. Kind of assay: Transmission electron microscopy of iPSC-RPE cells. As to conditions: treated vs untreated iPSC-RPE cells. On the procedure: as §1
The subject of assay [4] is iPSC-derived RPE cells. Kind of assay: Barrier function: transepithelial electrical potential (TEP) and resistance (TER) of RPE monolayer. On the procedure: To measure the barrier function of the RPE cells generated by the present methods, transepithelial electrical potential (TEP) was measured the ion gradient across the monolayer generated by energy-driven ion pumps that regulate passage across the cells, and transepithelial electrical resistance (TER) measures resistance of substances through the paracellular space mainly through the fine structure of the tight junction structure (FIG. 7A).
Functionality of the mature RPE cells treated with IWP2 or endo-IWR1 was also characterized. […] To determine the maturity and functionality of the 50 μM versus 100 μM PGE2 treated cultures, the barrier function in terms of transepithelial electrical resistance (TER) was measured (FIG. 7F) to compare the resistance of substances through the paracellular space as explained in Example 9. To determine the percentage of pure RPE cells obtained after treatment of the iPSC-derived RPE cultures with 50 μM or 100 μM in the RPE-MM+PGE2 medium, flow cytometry purity assay was performed for RPE-specific markers (FIG. 7G) as described in Example 6.

The next assay deals with RPE population. Put plainly: Inclusion of MEK inhibitor in RDM and RPE-MM during RPE differentiation. The following applies: 1 μM in RDM and in RPE-MM (approximately Days 42 through 50). As for the experimental part: With regard to the methods described in Examples 2 and 3, the inclusion of PD0325901 at a concentration of 1 μM in media for certain windows of time beginning on Day 2 post iPSC plating through the end of the differentiation process, including post-MACS culture, may improve both purity of the RPE population (meaning a decrease in contaminating cells) as well as maturity of the resulting RPE population.

The mark [5] stands for this setting: day 75, 100 μM vs 50 μM PGE2, day 54 to day 75.

Each structure is given as a SMILES string. “Also recorded” adds a separate entry of the source.

On to `Cc1ccc2nc(NC(=O)CSc3nc4c(c(=O)n3-c3ccccc3)SCC4)sc2c1` [IWP2, N-(6-Methyl-2-benzothiazolyl)-2-[(3,4,6,7-tetrahydro-4-oxo-3-phenylthieno[3,2-d]pyrimidin-2-yl)thio]-acetamide], for which, in the assay on iPSC-RPE cells [1], the p27 staining entry is “higher p27 expression in the nucleus”, the Beta catenin staining result is “decreased; also recorded: on cell membrane”, the RPE65 staining result is given as “increased; also recorded: high in the cytoplasm” and the RPE maturation entry was “produces mature RPE cells”.
As to `[Cl-].[Li+]` [LiCl], in the assay with iPSC-RPE cells [1], the p27 staining result was “weak p27 expression in the nucleus”, the Beta catenin staining result is “in the nucleus” and the RPE65 staining result is recorded as “no staining”.
On to `CCCCC[C@H](O)/C=C/[C@H]1[C@H](O)CC(=O)[C@@H]1C/C=C\CCCC(=O)O` [PGE2, prostaglandin E2], for which, in the assay with iPSC-derived RPE cells [2] (setting [5]), the “Expression of Best 1 marker (late maturity RPE marker)” value is “much higher”; the “Expression of Pmel17, Tryp1 and Cralbp (RPE-specific markers)” value is “comparable expression”. In addition, the “Purity and maturity of the RPE population” value in the assay with iPSC-derived RPE cells [2] (higher concentration (100 μM vs 50 μM) in RPE-MM+PGE2 medium, TER and flow cytometry) is “promotes both the purity and maturity”. In addition, the “Apical processes in transmission electron micrographs” value with iPSC-RPE cells [3] is recorded as “more extensive apical processes”. Besides, the ZO1 staining result with iPSC-RPE cells [1] (both untreated and treated cells) is “at the tight junctions in the plasma membrane”. For the same molecule, in the assay with iPSC-RPE cells [1], the Beta catenin staining entry is on record as “decreased; also recorded: at the membrane”, the RPE65 staining result is “increased; also recorded: high in the cytoplasm” and the RPE maturation entry was “produces mature RPE cells”. Further, the “pERM (Ezrin) staining” value with iPSC-RPE cells [1] (treated vs untreated iPSC-RPE cells (untreated: low in cytoplasm)) was “high in the cytoplasm”. In addition, the “Functional response (TER)” value in the assay on iPSC-derived RPE cells [4] (100 μM vs 50 μM PGE2 in RPE-MM+PGE2 medium, Day 54 to Day 75) was “progressive increase”. The “TEP and TER measurements (functionality)” value in the assay with iPSC-derived RPE cells [4] (treated vs untreated RPE cells) is reported as “increased functionality”.
For `O=C(NOC[C@H](O)CO)c1ccc(F)c(F)c1Nc1ccc(I)cc1F` [PD 0325901, N-[(2R)-2,3-Dihydroxypropoxy]-3,4-difluoro-2-[(2-fluoro-4-iodophenyl)amino]-benzamide], in the assay on RPE population, the “Purity and maturity of the RPE population” value is “improve both purity and maturity”.
